Ends that are not written are not given here.
How the values were obtained:
[1] = T cell activation-based serum stability assay; assay type: in vitro ADME; details: 30 µM peptide in RPMI-1640 + 10% fresh mouse serum, 24 h, 37 °C, vs fresh peptide; titrated on splenocytes, CD69 read-out by flow cytometry
Protocol: Peptides are also highly susceptible to proteolytic cleavage, resulting in a short half-life in vivo ([65], [66]). […] To test if the association of antigen-CPPs with serum components impacts peptide antigen stability, we used an in vitro antigen-presentation assay to functionally determine if T cells could still be activated by antigen-CPPs after incubation with serum proteases ([22]). Free gp100 peptide or gp100-CPP peptides were incubated for 24 h in 10% mouse serum, then added to splenocytes at titrated doses for 1 h to allow antigen uptake and processing, followed by culture with pmel-1 (gp100–specific) T cells for 24 h and assessment of pmel-1 CD69 expression (Fig. 6A and SI Appendix, Fig. S13). From these cocultures, we determined the peptide antigen concentration required for 50% of maximal CD69 up-regulation by the pmel-1 T cells (EC50) (Fig. 6B) and the change in EC50 for peptides preincubated with serum (ΔEC50) (Fig. 6C). […] In contrast, the ΔEC50 for gp100-CPPs ranged from 0.76 to 3.4 (Fig. 6C).
Following prime and boost of mice with gp100 peptides, CD8^+ T cell responses were confirmed on day −1. […] CD69^+/CD8^+ T cell responses were measured by flow cytometry.
Figure S13. […] Shown are plots of pmel activation, measured via CD69 upregulation, against the concentration of the fresh or serum -treated construct. […]

proteinase K = proteinase K (Parengyodontium album, UniProt P06873); experiment: Proteolysis LC-MS assay; assay type: in vitro ADME; details: 5 µM peptide in PBS, 0.5 ng proteinase K, 37 °C, 2 hours, time points 0, 30, 60, 120 min, LC-MS (Q-TOF), no other serum components
Text: To gain more direct evidence of altered peptide stability, we used quadrupole time-of-flight liquid chromatography/MS (LC-QTOF-MS), to directly detect proteolytic degradation of pAntp and MPG conjugates in serum. […] We hypothesized that enhanced stability of the conjugates could reflect an intrinsic protective peptidase-/protease-blocking effect by the CPP or be an indirect effect mediated by binding of the conjugate to other serum proteins that sterically interfere with protease attack on the peptide. To distinguish these possibilities, we performed a similar experiment assessing proteolytic stability in the presence of purified proteinase K—a promiscuous protease that cleaves peptide bonds following hydrophobic amino acids—in the absence of other serum components.
C18 column (2 μm particle size, 15 cm × 50 μm ID; Thermo Fisher Scientific). Mobile phase A was 0.1% formic acid in ultrapure water (v/v) and mobile phase B was 80% acetonitrile, 0.1% formic acid in ultrapure water (v/v). The nano-LC method was as follows: 1% B ramping in a linear manner to 41% B in A over 120 minutes, flow rate: 300 nL/min. Data were processed using PEAKS proteomics software.
Serum stability LC-MS assay. […]
Proteolysis LC-MS Assay. […] They were then resuspended 50:50 water:acetonitrile with 0.1% trifluoroacetic acid and reaction analyzed on an Agilent 6550 iFunnel Q -TOF MS. […]

proteinase K, sequence (P06873 106-384, species assumed): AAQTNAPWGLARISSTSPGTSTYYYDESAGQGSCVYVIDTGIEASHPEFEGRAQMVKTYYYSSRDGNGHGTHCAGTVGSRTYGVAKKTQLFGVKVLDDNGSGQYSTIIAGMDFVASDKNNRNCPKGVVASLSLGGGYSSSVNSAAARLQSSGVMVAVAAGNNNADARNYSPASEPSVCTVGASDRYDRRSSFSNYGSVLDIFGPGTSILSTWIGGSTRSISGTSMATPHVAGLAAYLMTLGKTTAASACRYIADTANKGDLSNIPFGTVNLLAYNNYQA

AVGALEGPRNQDWLGVPRQL-NH2 [gp100]
increase in EC50 (CD69 up-regulation) after incubation in serum [1]: ~16 fold | proteolytic stability with purified proteinase K (proteinase K): rapid degradation

— paper PMC9371699, “Cell-penetrating peptides enhance peptide vaccine accumulation and persistence in lymph nodes to drive immunogenicity” (Proceedings of the National Academy of Sciences of the …, 2022)
